Results published in US20140037574A1, “PHARMACEUTICAL COMPOSITION” (priority 2010, published 2014).

Molecular target: CYP3A4 (Homo sapiens, UniProt P08684)
Test: in vitro
Conditions: for inhibition at 10 min: human, microsomes, pH 7.4; for IC50: HLM, felodipine at its Km as substrate
Protocol: G6PDH (40 U/mL) was prepared in 5 mM sodium citrate solution and stored at −20° C. until use. […] The preparation of NRS was completed right before use. It was made such that on addition to the HLM incubation mixture, it contained 2.6 mM NADP', 6.7 mM G6P, […] and 0.8 U/ml G6PDH.
Substrate (felodipine) solutions were prepared over a range of 0.01-100.0 mM in acetonitrile. […] This was kept on ice until use.
The reaction was halted by a stop solution made of cooled acetonitrile (−20° C.).
Supernatants were filtered through […] and analysed by the UPLC method developed in order to quantify the extent of felodipine metabolism. The rate of metabolism, determined as the rate of disappearance of substrate, was profiled against the substrate concentration to determine the enzyme kinetic parameters.
Felodipine at its determined Km was incubated in HLM as described above except for the addition of inhibitors. […] Supernatants were analysed using the developed UPLC method. […] Another control was incubated without inhibitors to allow for maximum metabolism. […] At higher concentrations, the effect of acetonitrile on enzymatic activity could be significant. It is therefore recommended that not >1% acetonitrile should be included in the incubation mixture. […] The final concentration of acetonitrile in the incubation mixture was 1%.
Their inhibitory effects were investigated on microsomal metabolism of felodipine. The potencies of the inhibitors were measured as their IC50 values determined through non-linear regression of the percentage inhibition of felodipine metabolism against inhibitor concentration. […] The concentration of felodipine in incubation mixtures containing the various inhibitors and the modelled pre-systemic enzymatic modulators was determined and the extent of metabolism was measured as percentage of control.

Chain of CYP3A4 (P08684 whole entry): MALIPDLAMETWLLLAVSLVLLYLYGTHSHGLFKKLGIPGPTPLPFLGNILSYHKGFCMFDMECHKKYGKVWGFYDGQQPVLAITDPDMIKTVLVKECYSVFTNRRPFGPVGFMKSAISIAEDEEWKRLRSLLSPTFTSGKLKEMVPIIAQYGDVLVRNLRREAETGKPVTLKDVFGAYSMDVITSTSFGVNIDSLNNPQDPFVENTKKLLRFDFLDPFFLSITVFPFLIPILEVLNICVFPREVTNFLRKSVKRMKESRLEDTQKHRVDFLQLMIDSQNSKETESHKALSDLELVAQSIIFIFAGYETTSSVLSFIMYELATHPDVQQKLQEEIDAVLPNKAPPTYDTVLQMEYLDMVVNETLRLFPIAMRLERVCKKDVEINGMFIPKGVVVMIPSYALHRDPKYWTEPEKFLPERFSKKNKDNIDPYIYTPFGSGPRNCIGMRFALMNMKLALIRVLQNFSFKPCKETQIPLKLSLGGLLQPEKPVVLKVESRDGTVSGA

SMILES	inhibition at 10 min	IC50 (IC50 (mg/mL))	IC50 (IC50 (μM), Table 1)
O=C1C[C@@H](c2ccc(O)cc2)Oc2cc(O)cc(O)c21 [Naringenin, naringenin]	95%	–	–
C[C@@H]1O[C@@H](O[C@H]2[C@H](Oc3cc(O)c4c(c3)O[C@H](c3ccc(O)cc3)CC4=O)O[C@H](CO)[C@@H](O)[C@@H]2O)[C@H](O)[C@H](O)[C@H]1O [Naringin, naringin]	98%	178 µM	178 µM
O=c1c(O)c(-c2ccc(O)c(O)c2)oc2cc(O)cc(O)c12 [Quercetin, quercetin]	98%	–	–
